From patent US9144595B2, “APLs for treating arthritis” (University of Tennessee Research Foundation, priority 2009, dated 2015)
“And” between values parts separate entries of the source, which are not always exact repeats. Identical values can stand only once. “Also recorded” adds a separate entry of the source.

Key:
DR1 Transgenic mice [1] = assay: Effect of A12 on CIA in DR1 Transgenic mice (CII plus A12; intravenous A12 after CII-immunization); format: in vivo, mouse; conditions: for Incidence: arthritis incidence
Protocol: (§1) Assuming that CII263-270 was key to developing immunity to the intact CII molecule, a number of analog peptides where amino acids within this small segment were substituted with those found in the corresponding sites of nonarthritogenic type I collagen were prepared and tested. […] The APL A12 developed for this study has the following amino acid sequence: LGPKGQTGEBG[IAGNKGDQGPK]GEBGPA (SEQ ID NO: 3) where B=hydroxproline. The core determinant of human CII263-270 is bracketed. The underlined residues are those substituted to produce APL A12. The residues amino terminal and carboxy terminal to the core determinant is from the normal human CII sequence.

RA CD4+ T cells = assay: Intracellular IFNγ and IL-17 in CD4+ T cells of CII-stimulated RA PBMC (flow cytometry); format: cell-based, human; conditions: A12 10 μg/ml co-incubated with CII 50 μg/ml, 5 days; one RA patient; FIG. 2
Description: We assessed the effect of APL A12 added to cultures of RA PBMC stimulated with α1(II) on CD4^+ T cells expression of IFNγ and IL-17 as shown in FIG. 2.
The flow use an IFNγ scale on y-axis 295 and IL-17 on x-axis 290, 291, 292, 293, 294 (log scale). The results of the flow are shown for Control 210 including IFNγ+IL-17 flow 270 and IFNγ Control flow 285. The results of the flow are shown for CII+A12 220 including IFNγ+IL-17 flow 265 and IFNγ Control flow 280. The results of the flow are shown for CII 230 including IFNγ+IL-17 flow 260 and IFNγ Control flow 275. Columns 240, 250 represent IFNγ+IL-17 flow and IFNγ Control flow, respectively. Peripheral blood lymphocytes were placed in culture (2×10^6/well, 24 well plate) and stimulated with either CII alone (50 μg/ml), CII+A12 peptide (10 μg/ml), or PBS for 5 days. […] Cells were then collected and analyzed by flow cytometry using fluorochrome-labeled antibodies specific for CD4, CD8, CD69, IL-17 and IFNγ. […] Data are based on a minimum of 75,000 events analyzed. The IFNγ Controls (right panels) are based on the fluorescence minus one (FMO) approach whereby the antibody of IFNγ is omitted from these samples to make sure that no fluorochrome was spilling over into the IFNγ detector.

[2] = tested on: Peyer's Patch cells of DR1 TCRtg+/+ mice; assay: Oral APL A12: IL-17 and IL-10 in cultures of Peyer's Patch cells of DR1 TCRtg+/+ mice; format: in vivo, mouse
DR1 Transgenic mice [3] = assay: Acute toxicity study of HC Peptide 1 in DR1 transgenic mice; format: in vivo, mouse; conditions: for Weight of Mice / Weight of Livers / Weight of Spleens: individual mice, HC Peptide 1 (100 μg) Fed; for Weight of Livers / Weight of Spleens: at sacrifice
Protocol: Eight DR1 transgenic mice (C57 BL/10 containing a human transgene for DR1) were studied in these acute toxicity studies. The four female litter mates were nine weeks old at the time the studies were initiated. Two female mice and two male mice were randomly assigned to the control group and two female and two male mice were randomly assigned to be treated with HC Peptide 1. Mice were gavaged once daily for seven days with 100 μl IV saline containing 100 μg HC Peptide1. Mice were weighed before treatment and every two days. Mice were examined daily for general healthy appearance, glossy coat, ruffling of hair, lethargy, ad lib behavior, shivering or vigor. At sacrifice on day 7, blood was collected for complete blood count and chemistries were performed by the Clinical Pathology Services, Charles River Laboratories, 251 Ballardvale Street, Wilmington, Mass. 01887. Food and water consumption were monitored in each cage. Liver and spleen were weighed at sacrifice of each mouse. Sections of liver, spleen, kidney, heart, lung, stomach, and small and large intestine, were placed in 10% formalin and processed for routine H and E sections by the Histology Laboratory at the Memphis VAMC. Mice were housed in an IACUC approved facility with 12 hours light and 12 hours darkness.
Changes in body weight over the six days mice were gavaged with 100× the human HC Peptide 1 dose were similar to mice gavaged with IV saline (See Table IX). Water and food consumption were similar between HC Peptide 1 treated and mice gavaged with IV saline (Table X). Upon sacrifice at day 7, the weight of livers and spleens were similar between mice gavaged with 100× the human dose of HC Peptide 1 and mice gavaged with IV saline (See Table XI). The complete blood counts (CBC) after 6 days gavage of DRB1*0401 transgenic mice with 100× the human HC Peptide 1 dose were similar to litter mates gavaged with IV saline. Plasma chemistries were similar in the […] transgenic mice gavaged with 100× the human dose of HC Peptide 1 compared to litter mates gavaged with IV saline.

DR4 mice = assay: Suppression of immunity to CII and arthritis in DR4 mice; format: in vivo, mouse; conditions: high-responder DR4 mice
Protocol: as §1

DR1 Transgenic mice [4] = assay: Acute toxicity study of HC Peptide 1 in DR1 transgenic mice; format: in vivo, mouse
[5] = mice gavaged with 50 μg APL A12 9 times over 2 weeks, cells cultured with PBS
[6] = mice gavaged with 50 μg APL A12, cells cultured with APL A12 50 μg/ml
[7] = mice gavaged with 50 μg APL A12, cells cultured with CII263-270 50 μg/ml
[8] = mice gavaged with PBS, cells cultured with APL A12 50 μg/ml
[9] = Cage 1 Male (two mice), Days 1-2
[10] = Cage 1 Male (two mice), Days 3-4
[11] = Cage 1 Male (two mice), Days 5-6
[12] = Cage 1 Male (two mice), sum of Days 1-6 (unlabelled line)
[13] = Cage 3 Female (two mice), Days 1-2
[14] = Cage 3 Female (two mice), Days 3-4
[15] = Cage 3 Female (two mice), Days 5-6
[16] = Cage 3 Female (two mice), sum of Days 1-6 (unlabelled line)

Sequence: LGPKGQTGEBGIAGAKGDQGPKGEBGPA [APL A12]
- Antibodies to CII (DR1 Transgenic mice [1]; 0.01 mg (so in the source) i.v.): 33 ± 11
- Antibodies to CII (DR1 Transgenic mice [1]; 0.5 mg total i.v.): 24 ± 7 (p ≦ 0.025)
- Antibodies to CII (DR1 Transgenic mice [1]; 1 mg total i.v.): 22 ± 9 (p ≦ 0.025)
- antibody production to CII (DR1 Transgenic mice [1]; DR1-Transgenic mice): significantly decreased
- Incidence (DR1 Transgenic mice [1]; 0.01 mg (so in the source) i.v. on days 10, 12, 14 after CII-immunization): 5/10
- Incidence (DR1 Transgenic mice [1]; 0.5 mg total i.v. on days 10, 12, 14 after CII-immunization): 3/10
- Incidence (DR1 Transgenic mice [1]; 1 mg total i.v. on days 10, 12, 14 after CII-immunization): 1/10 (p = 0.01)
- immunity to CII and arthritis (DR1 Transgenic mice [1]; high-responder DR1 mice): profoundly suppress
- incidence of arthritis and number of arthritic limbs (DR1 Transgenic mice [1]; mice immunized with CII plus A12): dose-related decrease
- decrease in the number of IFNγ-producing T cells (RA CD4+ T cells): 75%
- reduction in IL-17 producing T cells (RA CD4+ T cells): 42%
- II-10 Levels in Peyer's Patch Cultures [2, 5]: 116 pg/mL
- IL-17 Levels in Peyer's Patch Cultures [2, 5]: 2.4 pg/mL
- II-10 Levels in Peyer's Patch Cultures [2, 6]: 105 pg/mL
- IL-17 Levels in Peyer's Patch Cultures [2, 6]: 1.8 pg/mL
- II-10 Levels in Peyer's Patch Cultures [2, 7]: 94 pg/mL
- IL-17 Levels in Peyer's Patch Cultures [2, 7]: 2.4 pg/mL
- II-10 Levels in Peyer's Patch Cultures [2, 8]: 27 pg/mL
- IL-17 Levels in Peyer's Patch Cultures [2, 8]: 16 pg/mL
- Plasma chemistries (DR1 Transgenic mice [3]; 100× the human dose vs IV saline): similar
- general appearance or behavior (DR1 Transgenic mice [3]; 100× the proposed highest human dose by gavage, compared to littermates gavaged with IV saline): no differences
- Chow Consumed (DR1 Transgenic mice [3]; [9]): 13.3 GMS
- Water Consumed (DR1 Transgenic mice [3]; [9]): 15 MI
- Chow Consumed (DR1 Transgenic mice [3]; [10]): 10.5 GMS
- Water Consumed (DR1 Transgenic mice [3]; [10]): 10 MI
- Chow Consumed (DR1 Transgenic mice [3]; [11]): 14.4 GMS
- Water Consumed (DR1 Transgenic mice [3]; [11]): 15 MI
- Chow Consumed (DR1 Transgenic mice [3]; [12]): 38.2 GMS
- Water Consumed (DR1 Transgenic mice [3]; [12]): 40 MI
- Chow Consumed (DR1 Transgenic mice [3]; [13]): 15.7 GMS
- Water Consumed (DR1 Transgenic mice [3]; [13]): 12.5 MI
- Chow Consumed (DR1 Transgenic mice [3]; [14]): 14.2 GMS
- Water Consumed (DR1 Transgenic mice [3]; [14]): 9.5 MI
- Chow Consumed (DR1 Transgenic mice [3]; [15]): 15.3 GMS
- Water Consumed (DR1 Transgenic mice [3]; [15]): 13 MI
- Chow Consumed (DR1 Transgenic mice [3]; [16]): 45.2 GMS
- Water Consumed (DR1 Transgenic mice [3]; [16]): 35 MI
- Weight of Mice (DR1 Transgenic mice [3]; Day 2, female mice): 21.6 GMS and 19.4 GMS
- Weight of Mice (DR1 Transgenic mice [3]; Day 2, male mice): 22.4 GMS and 21.0 GMS
- Weight of Mice (DR1 Transgenic mice [3]; Day 4, female mice): 21.0 GMS and 18.6 GMS
- Weight of Mice (DR1 Transgenic mice [3]; Day 4, male mice): 21.6 GMS and 20.3 GMS
- Weight of Mice (DR1 Transgenic mice [3]; Day 6, female mice): 21.9 GMS and 19.3 GMS
- Weight of Mice (DR1 Transgenic mice [3]; Day 6, male mice): 22.7 GMS and 20.9 GMS
- Weight of Mice (DR1 Transgenic mice [3]; Time 0, female mice): 21.6 GMS and 18.7 GMS
- Weight of Mice (DR1 Transgenic mice [3]; Time 0, male mice): 22.4 GMS and 20.8 GMS
- Weight of Livers (DR1 Transgenic mice [3]; female mice): 0.99 GMS and 0.87 GMS
- Weight of Spleens (DR1 Transgenic mice [3]; female mice): 0.065 GMS and 0.07 GMS
- Weight of Livers (DR1 Transgenic mice [3]; male mice): 1.14 GMS and 0.9 GMS
- Weight of Spleens (DR1 Transgenic mice [3]; male mice): 0.09 GMS and 0.06 GMS
- weight of livers and spleens (DR1 Transgenic mice [3]; sacrifice at day 7, 100× the human dose vs IV saline): similar
- Water and food consumption (DR1 Transgenic mice [3]; vs mice gavaged with IV saline): similar
- immunity to CII and arthritis (DR4 mice): profoundly suppress
- complete blood counts (CBC) (DR1 Transgenic mice [4]; after 6 days gavage with 100× the human dose vs IV saline): similar
- Histologic assessment of internal organs (livers, spleens, kidneys, hearts, lungs) (DR1 Transgenic mice [4]; gavaged for six days with 100× human dose vs IV saline, listed as HC Peptide 1): no difference; also recorded: did not reveal abnormalities
- clinical signs of illness, changes in complete blood counts or liver and renal chemistries (DR1 Transgenic mice [4]; oral, 100× the proposed human dose daily for six days): not associated
- Changes in body weight (DR1 Transgenic mice [4]; over the six days gavaged with 100× the human dose, vs IV saline): similar
